This is an account of results in ChEMBL document CHEMBL2413062, “Effect of single pyrrole replacement with β-alanine on DNA binding affinity and sequence specificity of hairpin pyrrole/imidazole polyamides targeting 5'-GCGC-3'” (Bioorg Med Chem, 2013).

The term pKd denotes −log10 of the Kd, conventionally taken in molar units. Read a low pKd as a large Kd.

Test [1] in a line: Selectivity ratio of Kd for mismatched hair pin DNA ODN2 5'-XGCCAGTGCGGCTTTTGCCGCACTGGC-3' (unknown origin) to Kd for hair pin DNA ODN1 5'-XGCCAGCGCGGCTTTTGCCGCGCTGGC-3' (unknown origin).
A short description of test [2]: Selectivity ratio of Kd for mismatched hair pin DNA ODN3 5'-XGCCAGCACGGCTTTTGCCGTGCTGGC-3' (unknown origin) to Kd for hair pin DNA ODN1 5'-XGCCAGCGCGGCTTTTGCCGCGCTGGC-3' (unknown origin).
Test [3] is described as follows: Binding affinity to hair pin DNA ODN4 5'-XGCCATGACGGCTTTTGCCGTACTGGC-3' (unknown origin) by surface plasmon resonance analysis. (In general: Surface plasmon resonance follows binding to a sensor surface in real time, without labels.)
Test [4] can be described thus: Binding affinity to hair pin DNA ODN2 5'-XGCCAGTGCGGCTTTTGCCGCACTGGC-3' (unknown origin) by surface plasmon resonance analysis.
Test [5] can be described thus: Selectivity ratio of Kd for mismatched hair pin DNA ODN4 5'-XGCCATGACGGCTTTTGCCGTACTGGC-3' (unknown origin) to Kd for hair pin DNA ODN1 5'-XGCCAGCGCGGCTTTTGCCGCGCTGGC-3' (unknown origin).
Test [6] can be described thus: Binding affinity to hair pin DNA ODN3 5'-XGCCAGCACGGCTTTTGCCGTGCTGGC-3' (unknown origin) by surface plasmon resonance analysis.
Test [7] in a line: Binding affinity to hair pin DNA ODN1 5'-XGCCAGCGCGGCTTTTGCCGCGCTGGC-3' (unknown origin) by surface plasmon resonance analysis.

pKd: −log10 of the molar value.

For `CN(C)CCCNC(=O)CCNC(=O)c1cc(NC(=O)c2nc(NC(=O)CCNC(=O)c3nc(NC(=O)CCCNC(=O)c4cc(NC(=O)c5nc(NC(=O)CCNC(=O)c6nc(NC(=O)CCNC(=O)CCN)cn6C)cn5C)cn4C)cn3C)cn2C)cn1C`, the Ratio stood at 17 in test [1], 17 in test [2] and 29 in test [5]. The pKd in test [3] is 7.74; in test [4], 7.96; in test [6], 7.96; in test [7], 9.20.

As to `CN(C)CCCNC(=O)CCNC(=O)c1cc(NC(=O)c2nc(NC(=O)c3cc(NC(=O)c4nc(NC(=O)CCCNC(=O)c5cc(NC(=O)c6nc(NC(=O)CCNC(=O)c7nc(NC(=O)CCNC(=O)CCN)cn7C)cn6C)cn5C)cn4C)cn3C)cn2C)cn1C`, the pKd in test [3] was 7.33; in test [4], 7.05; in test [6], 7.96; in test [7] it was 9.36.

As for `CN(C)CCCNC(=O)CCNC(=O)c1cc(NC(=O)c2nc(NC(=O)c3cc(NC(=O)c4nc(NC(=O)CCCNC(=O)c5cc(NC(=O)c6nc(NC(=O)c7cc(NC(=O)c8nc(NC(=O)CCNC(=O)CCN)cn8C)cn7C)cn6C)cn5C)cn4C)cn3C)cn2C)cn1C`, the Ratio in test [1] is 250; in test [2], 230; in test [5], 300. Moreover, the pKd in test [3] is 4.09; in test [4], 4.17; in test [6], 4.20; in test [7], 6.57.

In the case of `CN(C)CCCNC(=O)CCNC(=O)c1cc(NC(=O)c2nc(NC(=O)CCNC(=O)c3nc(NC(=O)CCCNC(=O)c4cc(NC(=O)c5nc(NC(=O)c6cc(NC(=O)c7nc(NC(=O)CCNC(=O)CCN)cn7C)cn6C)cn5C)cn4C)cn3C)cn2C)cn1C`, the Ratio came to 16 in test [1], 120 in test [2] and 270 in test [5]. The pKd in test [3] is 6.72; in test [4], 7.96; in test [6] it was 7.08; in test [7] it was 9.15.
